The target in assay [1] is T1, Calpain-2 catalytic subunit (Sus scrofa, UniProt P43367).
T1 sequence (P43367 whole entry): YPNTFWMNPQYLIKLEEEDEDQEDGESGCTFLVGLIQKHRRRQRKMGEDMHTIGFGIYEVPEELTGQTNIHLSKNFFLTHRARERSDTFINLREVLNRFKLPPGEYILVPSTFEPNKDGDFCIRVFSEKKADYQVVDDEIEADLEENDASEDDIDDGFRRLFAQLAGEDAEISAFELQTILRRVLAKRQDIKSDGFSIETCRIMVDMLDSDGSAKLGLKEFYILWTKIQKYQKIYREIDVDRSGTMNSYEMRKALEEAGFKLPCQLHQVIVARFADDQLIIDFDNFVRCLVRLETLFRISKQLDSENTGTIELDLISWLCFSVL
Nature of the assay: pig calpain II inhibitor potency, dose response, biochemical, fluorogenic peptide substrate (AID 1420). It is filed as functional.

Assay [2] concerns the target T2, Histone-lysine N-methyltransferase NSD2 (Homo sapiens, UniProt O96028).
T2 sequence (O96028 whole entry): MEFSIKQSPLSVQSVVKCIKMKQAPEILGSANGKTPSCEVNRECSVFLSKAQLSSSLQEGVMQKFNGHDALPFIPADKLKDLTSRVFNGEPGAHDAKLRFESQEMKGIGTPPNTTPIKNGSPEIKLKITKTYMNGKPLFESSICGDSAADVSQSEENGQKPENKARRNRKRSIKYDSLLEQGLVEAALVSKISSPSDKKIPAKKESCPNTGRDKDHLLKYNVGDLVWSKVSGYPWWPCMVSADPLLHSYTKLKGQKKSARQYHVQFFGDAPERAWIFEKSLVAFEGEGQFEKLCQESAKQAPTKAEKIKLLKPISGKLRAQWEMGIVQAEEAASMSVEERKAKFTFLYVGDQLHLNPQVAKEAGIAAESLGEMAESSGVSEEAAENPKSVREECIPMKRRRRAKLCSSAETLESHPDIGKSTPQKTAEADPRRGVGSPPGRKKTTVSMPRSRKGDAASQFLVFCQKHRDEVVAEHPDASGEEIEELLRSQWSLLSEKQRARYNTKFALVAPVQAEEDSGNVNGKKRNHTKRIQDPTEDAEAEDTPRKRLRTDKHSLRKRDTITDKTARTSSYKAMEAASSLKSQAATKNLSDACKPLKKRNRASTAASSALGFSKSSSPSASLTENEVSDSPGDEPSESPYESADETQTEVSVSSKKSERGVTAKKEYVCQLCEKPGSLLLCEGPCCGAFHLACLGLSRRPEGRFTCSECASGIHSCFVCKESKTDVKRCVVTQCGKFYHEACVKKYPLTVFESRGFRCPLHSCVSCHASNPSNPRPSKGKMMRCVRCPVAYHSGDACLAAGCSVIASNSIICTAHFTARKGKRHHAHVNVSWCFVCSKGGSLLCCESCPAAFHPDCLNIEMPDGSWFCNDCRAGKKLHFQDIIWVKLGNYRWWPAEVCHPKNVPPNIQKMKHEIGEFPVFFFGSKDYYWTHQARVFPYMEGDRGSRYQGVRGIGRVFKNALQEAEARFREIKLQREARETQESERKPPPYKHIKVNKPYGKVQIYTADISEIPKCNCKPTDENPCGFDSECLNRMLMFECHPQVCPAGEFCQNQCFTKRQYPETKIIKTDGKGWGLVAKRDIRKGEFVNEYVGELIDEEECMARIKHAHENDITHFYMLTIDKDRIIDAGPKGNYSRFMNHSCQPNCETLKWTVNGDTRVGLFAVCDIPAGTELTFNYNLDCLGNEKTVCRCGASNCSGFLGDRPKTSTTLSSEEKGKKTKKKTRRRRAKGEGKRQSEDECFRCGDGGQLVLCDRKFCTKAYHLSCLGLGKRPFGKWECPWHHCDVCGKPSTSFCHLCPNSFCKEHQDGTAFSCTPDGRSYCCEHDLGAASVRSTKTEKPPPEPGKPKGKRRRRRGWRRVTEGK
It is filed as biochemical.

In assay [3] the target is RNA-editing ligase 1, mitochondrial (Trypanosoma brucei brucei, UniProt P86926). The experiment in a line: TbREL1 ligase inhibitors, dose response, biochemical, fluorescence, Trypanosoma brucei (AID 1117295). It is filed as functional.
Assay [4] concerns the target T3, RNA-binding protein pos-1 (Caenorhabditis elegans, UniProt G5EF15).
T3 sequence (G5EF15 whole entry): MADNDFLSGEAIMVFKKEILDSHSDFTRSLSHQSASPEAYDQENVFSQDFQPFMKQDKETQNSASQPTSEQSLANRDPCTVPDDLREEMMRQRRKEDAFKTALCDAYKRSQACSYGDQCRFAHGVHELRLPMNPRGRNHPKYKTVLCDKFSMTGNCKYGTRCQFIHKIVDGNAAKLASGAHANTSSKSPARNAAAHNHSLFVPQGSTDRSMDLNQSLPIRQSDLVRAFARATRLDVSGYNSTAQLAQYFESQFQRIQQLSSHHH
The experiment in a line: inhibitors of POS-1/mex-3 RNA binding, dose response, biochemical, fluorescence polarization (AID 1964).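 Further: purified POS-1 fused to maltose binding protein made in E. coli; potency of compounds blocking POS-1 binding to fluorescent RNA.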

Assay [5] concerns the target T4, Zinc finger protein mex-5 (Caenorhabditis elegans, UniProt Q9XUB2).
T4 sequence (Q9XUB2 whole entry): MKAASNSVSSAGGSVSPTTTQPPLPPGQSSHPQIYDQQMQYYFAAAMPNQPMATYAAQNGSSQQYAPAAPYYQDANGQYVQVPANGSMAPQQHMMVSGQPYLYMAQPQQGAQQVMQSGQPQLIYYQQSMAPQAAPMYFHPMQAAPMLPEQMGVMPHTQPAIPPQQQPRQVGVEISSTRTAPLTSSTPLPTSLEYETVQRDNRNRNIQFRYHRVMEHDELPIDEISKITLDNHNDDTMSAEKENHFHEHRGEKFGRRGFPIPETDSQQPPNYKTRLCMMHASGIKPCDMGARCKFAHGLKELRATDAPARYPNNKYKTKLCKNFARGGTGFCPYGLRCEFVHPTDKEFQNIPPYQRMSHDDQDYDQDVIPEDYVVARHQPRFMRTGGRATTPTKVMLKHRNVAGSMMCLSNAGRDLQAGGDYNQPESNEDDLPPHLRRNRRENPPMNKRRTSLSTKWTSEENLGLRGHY
The experiment in a line: MEX-5/TCR-2 RNA interaction inhibitors, dose response, biochemical, C. elegans, fluorescence polarization (AID 1960). A general note: Fluorescence polarisation rises when a labelled molecule tumbles more slowly, as on binding a larger partner.

For assay [6], the target named is T5, Mannose-6-phosphate isomerase (Homo sapiens, UniProt P34949).
T5 sequence (P34949 whole entry): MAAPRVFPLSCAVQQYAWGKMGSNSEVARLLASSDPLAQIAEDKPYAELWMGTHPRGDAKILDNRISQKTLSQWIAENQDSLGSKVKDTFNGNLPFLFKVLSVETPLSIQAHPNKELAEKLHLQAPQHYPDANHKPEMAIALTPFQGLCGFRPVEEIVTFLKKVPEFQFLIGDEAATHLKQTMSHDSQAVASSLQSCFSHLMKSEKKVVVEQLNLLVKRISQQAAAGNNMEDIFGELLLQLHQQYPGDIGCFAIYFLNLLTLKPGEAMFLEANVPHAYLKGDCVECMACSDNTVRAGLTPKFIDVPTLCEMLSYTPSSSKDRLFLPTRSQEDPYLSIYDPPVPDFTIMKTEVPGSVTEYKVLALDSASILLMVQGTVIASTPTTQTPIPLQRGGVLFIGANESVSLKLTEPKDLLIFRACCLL
Nature of the assay: human PMI inhibitors, high substrate, primary screen, biochemical, fluorescence intensity, high mannose 6-phosphate (AID 1220).

A further assay concerns the target Genome polyprotein (dengue virus type 2, UniProt P29990). Nature of the assay: Dengue-2 NS5 methyltransferase inhibitors, primary screen, biochemical, confirmation dose response (AID 588689). It is filed as functional.
Assay [7] is described as follows: C. albicans growth with fluconazole, confirmation, fluorescence, retest (AID 2467). It is filed as functional, cell-based.
Assay [8] has as its target Bifunctional protein GlmU (Mycobacterium tuberculosis, UniProt P9WMN3). Nature of the assay: Inhibitors of Mycobacterial Glucosamine-1-phosphate acetyl transferase (GlmU). Secondary screen. Also noted: species or system Mycobacterium tuberculosis H37Rv.
The next assay has as its target T6, Aminopeptidase N (Plasmodium falciparum FcB1/Columbia, UniProt O96935).
T6 sequence (O96935 whole entry): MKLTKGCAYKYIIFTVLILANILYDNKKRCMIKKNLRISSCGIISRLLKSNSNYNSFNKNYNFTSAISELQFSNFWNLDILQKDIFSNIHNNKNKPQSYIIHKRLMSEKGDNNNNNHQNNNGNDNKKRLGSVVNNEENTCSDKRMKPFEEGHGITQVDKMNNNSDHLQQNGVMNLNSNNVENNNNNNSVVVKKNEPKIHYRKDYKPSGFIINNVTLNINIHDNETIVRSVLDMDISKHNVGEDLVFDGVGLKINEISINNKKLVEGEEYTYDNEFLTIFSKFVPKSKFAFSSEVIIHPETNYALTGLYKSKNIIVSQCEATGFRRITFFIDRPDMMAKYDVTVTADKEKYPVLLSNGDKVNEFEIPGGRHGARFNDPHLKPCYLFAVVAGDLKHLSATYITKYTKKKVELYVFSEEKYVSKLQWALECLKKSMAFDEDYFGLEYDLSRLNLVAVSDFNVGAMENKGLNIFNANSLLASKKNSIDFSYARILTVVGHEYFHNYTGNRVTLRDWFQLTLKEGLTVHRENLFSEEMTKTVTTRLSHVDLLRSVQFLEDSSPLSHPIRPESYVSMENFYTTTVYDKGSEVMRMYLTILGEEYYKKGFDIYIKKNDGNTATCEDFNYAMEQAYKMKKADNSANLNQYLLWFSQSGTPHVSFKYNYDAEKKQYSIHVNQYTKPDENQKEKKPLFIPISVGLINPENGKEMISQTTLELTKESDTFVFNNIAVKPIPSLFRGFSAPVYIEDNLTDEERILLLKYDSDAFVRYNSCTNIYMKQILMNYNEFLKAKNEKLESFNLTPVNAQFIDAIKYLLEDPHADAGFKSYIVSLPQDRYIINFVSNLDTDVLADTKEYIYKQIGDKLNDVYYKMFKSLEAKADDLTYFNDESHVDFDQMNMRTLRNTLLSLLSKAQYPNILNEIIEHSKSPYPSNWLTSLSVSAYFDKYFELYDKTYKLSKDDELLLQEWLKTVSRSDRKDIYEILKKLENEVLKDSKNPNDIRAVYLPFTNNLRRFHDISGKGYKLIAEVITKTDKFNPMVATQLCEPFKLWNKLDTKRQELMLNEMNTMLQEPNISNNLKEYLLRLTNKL
The experiment in a line: P. falciparum M1AAP inhibitors, biochemical, fluorogenic H-Leu-NHMec substrate, 1536-well (AID 1445). Also noted: species or system Plasmodium falciparum 3D7, 3D7.

Assay [9] is described as follows: NIH-3T3 fibroblast cytotoxicity, dose response, cytotoxicity control, cell-based, fluorescence, Alamar Blue, secondary assay (AID 2327).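 Further: NIH-3T3 mouse fibroblasts cultured with fluconazole at 8 µg/mL.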 It is filed as functional. A general note: Alamar Blue is a resazurin reagent that responds to reducing activity.
The target in assay [10] is T7, Carboxy-terminal domain RNA polymerase II polypeptide A small phosphatase 1 (Homo sapiens, UniProt Q9GZU7).
T7 sequence (Q9GZU7 whole entry): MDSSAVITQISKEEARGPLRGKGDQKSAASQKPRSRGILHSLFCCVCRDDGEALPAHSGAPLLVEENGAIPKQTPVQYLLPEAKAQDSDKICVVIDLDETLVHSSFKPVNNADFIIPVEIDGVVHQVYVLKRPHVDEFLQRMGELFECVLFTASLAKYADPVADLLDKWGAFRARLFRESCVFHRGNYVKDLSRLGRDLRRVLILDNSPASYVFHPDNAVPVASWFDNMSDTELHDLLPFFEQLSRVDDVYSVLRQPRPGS
The experiment in a line: inhibitors of CTDSP1, concentration-response testing, biochemical assay, absorbance-based, actives from ultra-high-throughput screening (AID 540297). It is filed as functional.

Assay [11] can be described thus: Jurkat T cell cytotoxicity, dose response, cytotoxicity control for P. falciparum gametocyte viability project, luminescence (AID 1117277).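 Further: potency reflects loss of cellular ATP meaning fewer viable cells.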 It is filed as functional, cell-based.
The nature of assay [12]: P. falciparum late gametocyte killing, dose response, luminescence (AID 1117278).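 Further: gametocytes exposed to compound for 24 hours.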 It is filed as functional, cell-based.
A short description of assay [13]: Glucagon-like peptide 1 release potency, NCI-H716 cell line, dose-response, half-maximal inhibitory concentration (AID 1117344). It is filed as functional, cell-based.
Assay [14] in a line: half-maximal inhibitory concentration for glucagon-like peptide-1 release, STC-1 cell line, dose-response (AID 1117345). It is filed as functional, cell-based.

Each structure is given as a SMILES string. Active and inactive are the calls of the source. Where only a bound is given, the exact number is not on record here.

Genome polyprotein, sequence (P29990 2492-3391 limits assumed): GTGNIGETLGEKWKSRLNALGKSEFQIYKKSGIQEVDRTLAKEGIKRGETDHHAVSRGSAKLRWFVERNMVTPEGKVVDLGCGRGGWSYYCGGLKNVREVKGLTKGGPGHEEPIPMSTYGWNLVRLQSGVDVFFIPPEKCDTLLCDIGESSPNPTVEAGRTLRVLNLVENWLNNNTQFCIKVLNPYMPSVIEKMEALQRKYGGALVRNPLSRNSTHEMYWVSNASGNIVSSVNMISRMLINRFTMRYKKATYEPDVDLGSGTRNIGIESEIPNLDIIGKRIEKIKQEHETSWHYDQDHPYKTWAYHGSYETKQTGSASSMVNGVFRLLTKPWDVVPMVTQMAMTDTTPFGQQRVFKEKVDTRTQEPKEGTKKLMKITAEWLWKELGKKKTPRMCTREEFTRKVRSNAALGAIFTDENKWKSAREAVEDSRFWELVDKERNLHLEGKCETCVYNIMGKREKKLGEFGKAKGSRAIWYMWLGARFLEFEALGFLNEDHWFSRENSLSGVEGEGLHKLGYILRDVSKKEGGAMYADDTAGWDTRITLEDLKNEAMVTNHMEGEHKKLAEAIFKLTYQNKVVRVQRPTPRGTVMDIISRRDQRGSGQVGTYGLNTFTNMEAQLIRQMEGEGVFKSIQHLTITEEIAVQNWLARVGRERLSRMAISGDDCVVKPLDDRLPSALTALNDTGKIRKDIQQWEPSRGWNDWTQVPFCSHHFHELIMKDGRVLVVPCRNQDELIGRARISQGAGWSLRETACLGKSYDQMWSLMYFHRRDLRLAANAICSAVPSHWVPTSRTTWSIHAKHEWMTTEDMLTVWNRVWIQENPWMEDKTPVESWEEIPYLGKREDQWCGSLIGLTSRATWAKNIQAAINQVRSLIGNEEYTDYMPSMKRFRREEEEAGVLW
RNA-editing ligase 1, mitochondrial, sequence (P86926 whole entry): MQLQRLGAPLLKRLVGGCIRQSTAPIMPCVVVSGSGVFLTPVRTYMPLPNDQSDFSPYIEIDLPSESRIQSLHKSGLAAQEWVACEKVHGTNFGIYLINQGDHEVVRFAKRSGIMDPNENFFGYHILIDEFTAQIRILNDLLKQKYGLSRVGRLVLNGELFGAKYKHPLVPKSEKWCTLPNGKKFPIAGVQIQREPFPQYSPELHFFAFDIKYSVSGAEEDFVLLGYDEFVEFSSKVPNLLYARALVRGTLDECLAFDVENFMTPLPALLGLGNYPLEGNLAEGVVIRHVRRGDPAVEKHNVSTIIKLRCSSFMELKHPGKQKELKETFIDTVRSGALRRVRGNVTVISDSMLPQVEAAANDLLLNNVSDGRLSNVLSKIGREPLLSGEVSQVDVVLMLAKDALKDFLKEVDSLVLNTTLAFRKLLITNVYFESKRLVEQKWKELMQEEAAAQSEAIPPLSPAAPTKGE
Bifunctional protein GlmU, sequence (P9WMN3 whole entry): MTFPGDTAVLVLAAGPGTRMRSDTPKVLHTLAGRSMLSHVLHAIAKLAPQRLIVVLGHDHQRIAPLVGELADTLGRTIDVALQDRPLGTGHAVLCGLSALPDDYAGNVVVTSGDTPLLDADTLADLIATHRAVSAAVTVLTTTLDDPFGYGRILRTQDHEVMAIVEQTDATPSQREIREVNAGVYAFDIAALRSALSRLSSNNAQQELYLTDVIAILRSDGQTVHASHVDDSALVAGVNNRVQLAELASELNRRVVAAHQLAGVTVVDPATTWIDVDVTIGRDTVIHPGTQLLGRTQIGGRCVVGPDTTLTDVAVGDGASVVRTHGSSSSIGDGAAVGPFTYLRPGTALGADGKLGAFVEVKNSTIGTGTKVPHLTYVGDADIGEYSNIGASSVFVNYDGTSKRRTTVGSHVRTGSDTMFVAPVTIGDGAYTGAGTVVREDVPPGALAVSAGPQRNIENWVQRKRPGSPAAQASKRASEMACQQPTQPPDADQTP

One may read the IC50 as the concentration needed to halve the response being measured. In general, AC50 refers to the midpoint of the concentration-response curve, whichever way the signal moves. As a reminder, the EC50 is the midpoint of the concentration-response curve. For `CCOC(=O)c1ccc(CC(=O)c2ccc(O)c(O)c2O)o1`, the IC50 in [1] is > 50 µM (not active); in assay [3], > 96.6 µM (inactive); in assay [6], 19.4 µM (active); at Genome polyprotein, 33.6 µM (active). Also, in assay [2], the AC50 is 17.3 µM (active). Further, the EC50 in [4] was 35.5 µM (active); in assay [5] it was 0.868 µM (active).
Regarding `COC(=O)c1ccc(N2NC(=O)/C(=C/c3ccc(-c4ccc(Cl)c(C(=O)O)c4)o3)C2=O)cc1`, the EC50 in assay [7] is > 38 µM (not active); in assay [9], > 150 µM (inconclusive). For the same molecule, the half-inhibitory concentration (IC50) in assay [8] is 75.8 µM (active); on Aminopeptidase N, 28.6 µM (active); in assay [10] it was 2.15 µM (active); at Genome polyprotein, 11.9 µM (active).
`CSc1nccc(-c2cc(Cl)sc2Cl)n1`: the IC50 in assay [11] is > 83.3 µM (inactive); in assay [12] it was > 109 µM (inactive).
On to `CC(C)(C)CC(C)(C)c1ccc(O)cc1`, for which the IC50 in assay [13] was 25.9 µM (inactive); in assay [14] it was 8.37 µM (inactive).
